Data reported in ChEMBL document CHEMBL1201862, “PubChem BioAssay data set” (2004).
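Interpolation was linear, between the two tested concentrations surrounding the appropriate level; five concentrations were tested over 48 hours in 96-well plates. At the GI50, growth is halved.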 Calls of active or inactive are those of the source. Rule as the data show it: active = GI50 up to about 1.1 µM and inactive = higher.

Assays:
Assay in all cases: NCI-60 cell line screen, 48 h
786-0 = tested on: 786-0
A549 = tested on: A549
ACHN = tested on: ACHN
CAKI-1 = tested on: CAKI-1
CCRF-CEM = tested on: CCRF-CEM
COLO 205 = tested on: COLO 205
DLD-1 = tested on: DLD-1
DMS-114 = tested on: DMS-114
DMS-273 = tested on: DMS-273
EKVX = tested on: EKVX
HCC 2998 = tested on: HCC 2998
HCT-116 = tested on: HCT-116
HCT-15 = tested on: HCT-15
HL-60 = tested on: HL-60
HOP-18 = tested on: HOP-18
HOP-62 = tested on: HOP-62
HOP-92 = tested on: HOP-92
HT-29 = tested on: HT-29
K562 = tested on: K562
KM-20L2 = tested on: KM-20L2
KM12 = tested on: KM12
LOX IMVI = tested on: LOX IMVI
LXFL 529 = tested on: LXFL 529
M14 = tested on: M14
M19-MEL = tested on: M19-MEL
MOLT-4 = tested on: MOLT-4
Malme-3M = tested on: Malme-3M
NCI-H226 = tested on: NCI-H226
NCI-H23 = tested on: NCI-H23
NCI-H460 = tested on: NCI-H460
NCI-H522 = tested on: NCI-H522
OVCAR-3 = tested on: OVCAR-3
OVCAR-4 = tested on: OVCAR-4
OVCAR-5 = tested on: OVCAR-5
OVCAR-8 = tested on: OVCAR-8
RPMI-8226 = tested on: RPMI-8226
RXF 393 = tested on: RXF 393
SF-268 = tested on: SF-268
SF-295 = tested on: SF-295
SF-539 = tested on: SF-539
SK-MEL-28 = tested on: SK-MEL-28
SK-MEL-2 = tested on: SK-MEL-2
SK-MEL-5 = tested on: SK-MEL-5
SK-OV-3 = tested on: SK-OV-3
SN12C = tested on: SN12C
SNB-19 = tested on: SNB-19
SNB-75 = tested on: SNB-75
SNB-78 = tested on: SNB-78
SR = tested on: SR
SW-620 = tested on: SW-620
TK-10 = tested on: TK-10
U-251 = tested on: U-251
UACC-257 = tested on: UACC-257
UACC-62 = tested on: UACC-62
UO-31 = tested on: UO-31
XF498 = tested on: XF498
IGROV-1 = tested on: IGROV-1
RXF 631 = tested on: RXF 631
A498 = tested on: A498

Cc1ccc(NCC(=O)N2CC(=O)Nc3ccccc32)cc1
GI50 (786-0): > 100 µM (inactive)
GI50 (A549): > 100 µM (inactive)
GI50 (ACHN): > 100 µM (inactive)
GI50 (CAKI-1): > 100 µM (inactive)
GI50 (CCRF-CEM): > 100 µM (inactive)
GI50 (COLO 205): > 100 µM (inactive)
GI50 (DLD-1): > 100 µM (inactive)
GI50 (DMS-114): > 100 µM (inactive)
GI50 (DMS-273): > 100 µM (inactive)
GI50 (EKVX): > 100 µM (inactive)
GI50 (HCC 2998): > 100 µM (inactive)
GI50 (HCT-116): > 100 µM (inactive)
GI50 (HCT-15): > 100 µM
GI50 (HL-60): > 100 µM (inactive)
GI50 (HOP-18): > 100 µM (inactive)
GI50 (HOP-62): > 100 µM (inactive)
GI50 (HOP-92): > 100 µM (inactive)
GI50 (HT-29): > 100 µM (inactive)
GI50 (K562): > 100 µM (inactive)
GI50 (KM-20L2): > 100 µM (inactive)
GI50 (KM12): > 100 µM (inactive)
GI50 (LOX IMVI): > 100 µM (inactive)
GI50 (LXFL 529): > 100 µM (inactive)
GI50 (M14): > 100 µM (inactive)
GI50 (M19-MEL): > 100 µM (inactive)
GI50 (MOLT-4): > 100 µM (inactive)
GI50 (Malme-3M): > 100 µM (inactive)
GI50 (NCI-H226): > 100 µM (inactive)
GI50 (NCI-H23): > 100 µM (inactive)
GI50 (NCI-H460): > 100 µM (inactive)
GI50 (NCI-H522): > 100 µM (inactive)
GI50 (OVCAR-3): > 100 µM (inactive)
GI50 (OVCAR-4): > 100 µM (inactive)
GI50 (OVCAR-5): > 100 µM (inactive)
GI50 (OVCAR-8): > 100 µM (inactive)
GI50 (RPMI-8226): > 100 µM (inactive)
GI50 (RXF 393): > 100 µM (inactive)
GI50 (SF-268): > 100 µM (inactive)
GI50 (SF-295): > 100 µM (inactive)
GI50 (SF-539): > 100 µM (inactive)
GI50 (SK-MEL-28): > 100 µM (inactive)
GI50 (SK-MEL-2): > 100 µM (inactive)
GI50 (SK-MEL-5): > 100 µM (inactive)
GI50 (SK-OV-3): > 100 µM (inactive)
GI50 (SN12C): > 100 µM (inactive)
GI50 (SNB-19): > 100 µM (inactive)
GI50 (SNB-75): > 100 µM (inactive)
GI50 (SNB-78): > 100 µM (inactive)
GI50 (SR): > 100 µM (inactive)
GI50 (SW-620): > 100 µM (inactive)
GI50 (TK-10): > 100 µM (inactive)
GI50 (U-251): > 100 µM (inactive)
GI50 (UACC-257): > 100 µM (inactive)
GI50 (UACC-62): > 100 µM (inactive)
GI50 (UO-31): > 100 µM (inactive)
GI50 (XF498): 75.7 µM (inactive)

C1=CC=C2NCCCCCCC/N=C3/C=CC=CC=C3NCCCCCCC/N=C\2C=C1
GI50 (786-0): > 100 µM (inactive)
GI50 (A549): > 100 µM (inactive)
GI50 (ACHN): 85.7 µM (inactive)
GI50 (CAKI-1): > 100 µM (inactive)
GI50 (CCRF-CEM): 36.8 µM (inactive)
GI50 (COLO 205): > 100 µM (inactive)
GI50 (DLD-1): 49.4 µM (inactive)
GI50 (DMS-273): 19.1 µM (inactive)
GI50 (EKVX): > 100 µM (inactive)
GI50 (HCC 2998): > 100 µM (inactive)
GI50 (HCT-116): 39.1 µM (inactive)
GI50 (HCT-15): > 100 µM
GI50 (HL-60): 43.5 µM (inactive)
GI50 (HOP-62): 10 µM (inactive)
GI50 (HOP-92): 33.9 µM (inactive)
GI50 (HT-29): 37.5 µM (inactive)
GI50 (IGROV-1): 10 µM (inactive)
GI50 (K562): 30.1 µM (inactive)
GI50 (KM-20L2): 30.5 µM (inactive)
GI50 (KM12): > 100 µM (inactive)
GI50 (LOX IMVI): 54.2 µM (inactive)
GI50 (LXFL 529): > 100 µM (inactive)
GI50 (M14): 10 µM (inactive)
GI50 (M19-MEL): > 100 µM (inactive)
GI50 (MOLT-4): 31 µM (inactive)
GI50 (Malme-3M): > 100 µM (inactive)
GI50 (NCI-H226): > 100 µM (inactive)
GI50 (NCI-H23): 11.9 µM (inactive)
GI50 (NCI-H460): 25.4 µM (inactive)
GI50 (NCI-H522): 52.5 µM (inactive)
GI50 (OVCAR-3): 10 µM (inactive)
GI50 (OVCAR-4): 64.3 µM (inactive)
GI50 (OVCAR-5): > 100 µM (inactive)
GI50 (OVCAR-8): 40.1 µM (inactive)
GI50 (RPMI-8226): 35.9 µM (inactive)
GI50 (RXF 393): 16.9 µM (inactive)
GI50 (RXF 631): 13 µM (inactive)
GI50 (SF-268): > 100 µM (inactive)
GI50 (SF-295): 47.5 µM (inactive)
GI50 (SF-539): 30.9 µM (inactive)
GI50 (SK-MEL-2): > 100 µM (inactive)
GI50 (SK-OV-3): 10 µM (inactive)
GI50 (SN12C): > 100 µM (inactive)
GI50 (SNB-19): > 100 µM (inactive)
GI50 (SNB-75): 25.8 µM (inactive)
GI50 (SR): 63.5 µM (inactive)
GI50 (SW-620): 79.6 µM (inactive)
GI50 (U-251): 10 µM (inactive)
GI50 (UACC-257): > 100 µM (inactive)
GI50 (UACC-62): 10 µM (inactive)
GI50 (UO-31): > 100 µM (inactive)
GI50 (XF498): > 100 µM (inactive)

O=C1c2ccccc2C(=O)c2c(O)c(NCCNCCO)cc(O)c21
GI50 (786-0): 3.33 µM (inactive)
GI50 (A498): 7.26 µM (inactive)
GI50 (A549): 3.55 µM (inactive)
GI50 (ACHN): 2.17 µM (inactive)
GI50 (CAKI-1): 2.08 µM (inactive)
GI50 (CCRF-CEM): 3.05 µM (inactive)
GI50 (DLD-1): 3.13 µM (inactive)
GI50 (DMS-114): 4.19 µM (inactive)
GI50 (DMS-273): 3.81 µM (inactive)
GI50 (EKVX): 2.47 µM (inactive)
GI50 (HCC 2998): 3.78 µM (inactive)
GI50 (HCT-116): 2.3 µM (inactive)
GI50 (HCT-15): 3.64 µM
GI50 (HL-60): 4.69 µM (inactive)
GI50 (HOP-18): 6.49 µM (inactive)
GI50 (HOP-62): 3.93 µM (inactive)
GI50 (HOP-92): 11.1 µM (inactive)
GI50 (HT-29): 3.23 µM (inactive)
GI50 (IGROV-1): 1.91 µM (inactive)
GI50 (K562): 2.75 µM (inactive)
GI50 (KM-20L2): 4.12 µM (inactive)
GI50 (KM12): 3.72 µM (inactive)
GI50 (LOX IMVI): 3.73 µM (inactive)
GI50 (LXFL 529): 5.96 µM (inactive)
GI50 (M14): 4.42 µM (inactive)
GI50 (M19-MEL): 3.62 µM (inactive)
GI50 (MOLT-4): 3.02 µM (inactive)
GI50 (Malme-3M): 12.1 µM (inactive)
GI50 (NCI-H226): 3.83 µM (inactive)
GI50 (NCI-H23): 3.77 µM (inactive)
GI50 (NCI-H460): 3.34 µM (inactive)
GI50 (OVCAR-3): 4.39 µM (inactive)
GI50 (OVCAR-4): 2.99 µM (inactive)
GI50 (OVCAR-5): 10.2 µM (inactive)
GI50 (OVCAR-8): 3.01 µM (inactive)
GI50 (RPMI-8226): 3.88 µM (inactive)
GI50 (RXF 393): 4.74 µM (inactive)
GI50 (SF-268): 4.29 µM (inactive)
GI50 (SF-295): 10.2 µM (inactive)
GI50 (SF-539): 4.93 µM (inactive)
GI50 (SK-MEL-28): 5.11 µM (inactive)
GI50 (SK-MEL-2): 5.07 µM (inactive)
GI50 (SK-MEL-5): 3.44 µM (inactive)
GI50 (SN12C): 3.99 µM (inactive)
GI50 (SNB-19): 1.75 µM (inactive)
GI50 (SNB-75): 4.52 µM (inactive)
GI50 (SNB-78): 5.21 µM (inactive)
GI50 (SR): 2.2 µM (inactive)
GI50 (SW-620): 2.79 µM (inactive)
GI50 (TK-10): 5 µM (inactive)
GI50 (UACC-257): 6.59 µM (inactive)
GI50 (UACC-62): 11.5 µM (inactive)
GI50 (UO-31): 2.96 µM (inactive)
GI50 (XF498): 6.95 µM (inactive)
